Experimental data: patent US20240415878A1, “Compositions and Methods for Modulating Mitochondrial Function” (Board of Regents, The University of Texas System, priority 2021, published 2024)

Experiments:
MCU = molecular target: T1, MCU (Homo sapiens, UniProt Q8NE86); test: MCU-mediated mCa2+ uptake in permeabilized cells (spectrofluorometry); type: cell-based; settings: permeabilized cells (HeLa, 10 μM per FIG. 10H legend)
T1 construct: endogenous in cells; host or cells: HeLa cells, permeabilized
T1 sequence (Q8NE86 51-351): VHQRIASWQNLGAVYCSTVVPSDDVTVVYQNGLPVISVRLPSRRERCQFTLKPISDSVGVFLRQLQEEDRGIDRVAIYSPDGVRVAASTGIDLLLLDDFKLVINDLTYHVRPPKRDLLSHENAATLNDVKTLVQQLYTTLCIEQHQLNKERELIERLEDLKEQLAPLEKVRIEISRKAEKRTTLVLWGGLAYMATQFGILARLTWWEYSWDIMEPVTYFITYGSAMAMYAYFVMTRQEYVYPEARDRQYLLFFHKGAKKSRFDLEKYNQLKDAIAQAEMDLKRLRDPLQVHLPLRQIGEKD
T1 sequence (Q9H4I9 48-107 partner limits assumed): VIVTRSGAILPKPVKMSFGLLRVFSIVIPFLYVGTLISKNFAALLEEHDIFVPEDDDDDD
Description: Bacterial CorA forms a pentameric complex that selectively drives Mg2+ uptake in an electrogenic manner. […] Mrs2 is the eukaryotic homologue of CorA and contains two transmembrane domains with a well-conserved F/Y-G-M-N motif; therefore, CorA blockers were tested to determine if they alter Mrs2-mediated mMg^2+ uptake (Moomaw and Maguire, 2008). Digitonin permeabilized hepatocytes were utilized to measure the inhibitory effect and determine its IC50. Permeabilized cells were treated with CPACC followed by a 1 mM bolus of MgCl2 (FIG. 10B). A 1 mM Mg^2+ bolus was added after baseline recording, and the extramitochondrial Mg^2+ clearance was used as a read-out for Mrs2-mediated mMg^2+ uptake using Mag-Green as a Mg^2+ indicator. […] We next investigated Mrs2 inhibition in intact hepatocytes loaded with Mag-Green-AM. […] Next CPACC was examined to determine if it had any effect on MCU-mediated mCa^2+ uptake in permeabilized cells. […] The availability of the compound to intact cells was measured using graphite furnace atomic absorption spectroscopy (GFAAS) and bicinchoninic acid in parallel.
Spectrofluorimetric measurement of mitochondrial Mg^2+ and Ca^2+ dynamics and citrate mediated MagGreen fluorescence quenching. Fluorescence measurements were conducted in a multiwavelength excitation dual wavelength emission spectrofluorometer (Delta RAM, PTI, HORIBA). […]

[1] = HFD-fed WT mice treated with CPACC i.p.; type: in vivo
Description: CPACC treatment enhances adipose browning and lowers whole body weight. Given the potent mMg^2+ uptake inhibiting properties and low toxicity of CPACC, we hypothesized that CPACC could mimic Mrs2^−/− cellular phenotype. WT hepatocytes isolated from over 12 months old mice were treated with 50 μM CPACC for 48 hours. Control and CPACC treated hepatocytes were stained with BODIPY and TMRE for intracellular tracing using confocal imaging. […] Next it was determined if CPACC treatment affects the mitochondrial oxygen consumption rate. Freshly isolated WT hepatocytes were treated with 5-25 μM concentrations of CPACC for 16 hours before measurement of oxygen consumption rate. […] Since it was observed an enhancement of basal OCR in CPACC treated hepatocytes, the extracellular acidification rate was measured in control and CPACC treated hepatocytes and found it to be higher in the CPACC condition indicating higher glycolytic activity (FIG. 11G). Having observed that pharmacologic blockade of Mrs2 by CPACC reduced lipid droplet size and enhanced mitochondrial function, it was asked whether in vivo administration of CPACC lowers body weight gain. 12 weeks HFD-fed WT mice were treated with CPACC (20 mg/kg) via intraperitoneal injection every three days over 6 weeks. […] Because it was observed browning/beiging in Mrs2^−/− iWAT, UCP1 expression by RT-qPCR was tested, confirming induction in the iWAT of CPACC treated mice.
Animal models. Wild-type (WT) and Mrs2^−/− (KO) C57BL/6J mice were housed and maintained in our animal breeding facility with prior approval and accordance with the Institutional Animal Care and Use Committee (IACUC). Mice were fed a Western Diet (WD; Research Diets D09100310), a standard Chow Diet (CD; Envigo 7012), or a High Fat Diet (HFD; Research Diets D12492). For most experiments, WT and KO mice were maintained on the WD or the CD starting at 12 weeks of age. With termination at 12 months. WT mice maintained on a HFD starting at 6 weeks were administered control (saline) or CPACC (20 mg/kg BW in saline) I.P. every 3 days starting after 6 weeks of maintained diet. Body weight, health, and food were measured regularly for all groups. […]
Plasma alanine transaminase activity and citrate measurements. Liver function and damage was determined by measuring alanine transaminase (ALT). The ALT activity in the plasma was determined using the Alanine Transaminase Activity Assay Kit (Abcam ab105134) following manufacturer's protocol. The plasma ALT levels over two different time points were obtained and corresponding ALT activity was determined by reading in a plate reader at 570 nm. […] Citrate levels were determined using the Citrate Assay Kit (Abcam ab83396) by reading in a plate reader at 570 nm following the manufacturer's protocol. […]

For `[NH2][Co]([NH2])([NH2])([NH2])([NH2])[Cl]` [CPACC, chloropentaammine cobalt (III) chloride], the “MCU-mediated mCa^2+ uptake” value (MCU) was “did not inhibit”, the “RT-qPCR analysis of WAT tissue (HIF-1α pathway)” value ([1]; HFD mice, 20 mg/kg i.p.) was “transcriptional signature of HIF-1α activation” and the “UCP1 expression in iWAT by RT-qPCR” value ([1]; HFD-fed WT mice, 20 mg/kg i.p.) was “induction”. For the same compound, the body weight gain ([1]; HFD-fed WT mice, 20 mg/kg i.p. every three days over 6 weeks) was “restricted body weight gain” and the “Plasma ALT levels” value ([1]; HFD-fed WT mice, 20 mg/kg i.p., versus control group) was “lower”.
